From patent publication US6950754B2, “Apparatus and method for automated protein design” (The California Institute of Technology, priority 1997, dated 2005)
No end group written: not given here.

Experiments:
[1] = Thermal melts monitored by circular dichroism at 222 nm (coiled coil peptides); format: physicochemical; details: surface designs on GCN4-p1, pH 7.0, 40 μM
Method: A 1 mm pathlength cell was used and the temperature was controlled by a thermoelectric unit. Thermal melts were performed in the same buffer using two degree temperature increments with an averaging time of 10 s and an equilibration time of 90 s. […] Peptide concentrations were determined from the tyrosine absorbance at 275 nm (Huyghues-Despointes, et al., supra).

[2] = Size exclusion chromatography, oligomerization state (coiled coil peptides); format: physicochemical; details: pH 7.0, 0° C.
Method: Size exclusion chromatography: Size exclusion chromatography was performed with a Synchropak GPC 100 column (25 cm by 4.6 mm) at pH 7.0 in 50 mM phosphate and 150 mM NaCl at 0° C. […] 10 μl injections of 1 mM peptide solution were chromatographed at 0.20 ml/min and monitored at 275 nm. Peptide concentrations were approximately 60 μM as estimated from peak heights. Samples were run in triplicate.
Size exclusion chromatography was performed with a PolyLC hydroxyethyl A column (20 cm×9 mm) at pH 7.0 in 50 mM phosphate and 150 mM NaCl at 0° C. […] 5 μl injections of ˜1 mM peptide solution were chromatographed at 0.50 ml/min and monitored at 214 nm. Samples were run in triplicate.

[3] = Circular dichroism spectra, ellipticity at 222 nm and helical content (coiled coil peptides); format: physicochemical; details: 1° C., 40 μM
Method: Circular dichroism CD spectra were measured on an Aviv 62DS spectrometer at pH 7.0 in 50 mM phosphate, 150 mM NaCl and 40 μM peptide. A 1 mm pathlength cell was used and the temperature was controlled by a thermoelectric unit.
Circular dichroism spectroscopy (CD) was used to assay the secondary structure and thermal stability of the designed peptides.
The secondary structures and thermal stabilities of the peptides were assessed by circular dichroism (CD) spectroscopy.

[4] = format: physicochemical; details: pH 5.5

Substance	Tm [1] [°C]	N (oligomerization state) [2]	[θ]222 [3] [deg cm^2/dmol]	limited solubility [4] [µM]
Ac-RMAALEAKVAALLAKNAALEAEVAALKALVGER-NH2 [6F]	73			
Ac-RMARLEAKVAALLAKNRRLEREVARLKALVGER-NH2 [6C]	69	2		
Ac-RMEKLEDKVRELLRKNRRLEEEVRRLKELVGER-NH2 [6A]	71	2		
Ac-RMEKLEQKVKELLRKNERLEEEVERLKQLVGER-NH2 [6B]	72	2		
Ac-RMNTLERKVAKLLSKNANLEHEVNTLKQLVGER-NH2 [6E]	15	2	−12000	
Ac-RMRELEEKVRRLLRKNEDLEREVKRLKELVGER-NH2 [6D]	71	2		
MTWKYIINGKTLKGETTTEIVDAATFEKVWKQYLNDNGIDGEFTYDDATKTLTITE [α70]				100
